This is an account of results in US6407080B2, “N-(pyrimidinyl)-aspartic acid analogs as interleukin-1β converting enzyme inhibitors” (Vertex Pharmaceuticals Incorporated, priority 1994, dated 2002).

In test [1] the test system is release of mature IL-1β from human monocytes. Nature of the test: Human monocyte pulse chase assay, inhibition of release of mature IL-1β (called "in vivo"). Format: cell-based. Particulars: freshly isolated human monocytes activated with fixed S. aureus, 2-3 donors, values approximate. The procedure:
In vivo inhibition (IC50) was determined based on Miller et al., “Inhibition of Mature IL-1β Production in Murine Macrophages and a Murine Model of Inflammation By WIN 67694, An Inhibitor of IL-1β Converting Enzyme, J. Immunol., 1994, 154, 1331, as follows:
Human monocytes were isolated from heparinized leukopheresis units obtained through Biological Specialty Corporation (Lansdale, Pa.). Monocytes were purified by Ficoll-Hupaque (Pharmacia Fine Chemicals, Piscataway, N.J.) gradient centrifugation and more than 95% pure monocyte populations obtained by centrifugal elutriation. The assay was performed on duplicate samples of freshly isolated human monocytes, cultured in suspension at 37° C. and rotated gently in conical bottom polypropylene tubes (Sardstedt Inc., Princeton, N.J.). Human monocytes at a concentration of 5×10^6 cells/mL were resuspended in 1 mL of RPMI 1640 (a common tissue buffer from M.A. Bioproducts, Walkersville, Md.) containing 1% fetal calf serum (FCS) (HyClone, Logan, Utah) and 50 μg/mL gentamycin (Gibco, Grand Island, N.Y.). The cells were treated either with a compound of the invention (i.e. test compound) or with a non-inhibitor (control compound, typically 0.03% DMSO) for 15 minutes and then activated with 0.01% fixed Staphylococcus aureus (The Enzyme Center, Malden, Mass.) for 1 hour. The cells were then centrifuged and resuspended in 1 mL of cysteine, methionine-free RPMI media containing 1% dialyzed FCS (Hyclone). The cells were pretreated with a test compound or control compound for 15 minutes after which 0.01% fixed S. aureus plus 100 μCi Tran 35-S label (ICN, Irvine, Calif.) was added and the cells incubated at 37° C. for 1 hour. After incubation, […]. The cells were again pretreated with a test or control compound for 15 minutes and then 0.01% S. aureus for 2 hours. […]
In the monocyte pulse chase assay, each test parameter was run in duplicate. […] When test compounds were evaluated, the percent inhibition of release of mature IL-β was calculated as follows: […]

The next test has as its target T1, elastase (Homo sapiens, UniProt P08246).
T1 sequence (P08246 30-267): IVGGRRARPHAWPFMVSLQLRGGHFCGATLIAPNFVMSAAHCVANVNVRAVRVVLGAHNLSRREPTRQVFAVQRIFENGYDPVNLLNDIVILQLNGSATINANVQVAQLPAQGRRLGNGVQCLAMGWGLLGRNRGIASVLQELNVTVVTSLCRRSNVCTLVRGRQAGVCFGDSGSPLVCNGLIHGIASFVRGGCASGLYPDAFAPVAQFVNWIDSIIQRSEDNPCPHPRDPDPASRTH
Nature of the test: Elastase inhibition (in vitro). Format: biochemical. Conditions: in vitro assay per Cha; did not inhibit elastase. An excerpt:
It should be noted that the pyrimidine-based trifluoromethyl ketones (FIG. 2) were recently described as inhibitors of the serene protease, elastase. Since ICE is a cysteine protease and it is known in the prior art that trifluoromethyl ketones are rather poor inhibitors of cysteine proteases (See, Imperialia, B. and Ables, R. H., Biochemistly (1986), 2, 3760-7), it is expected that the pyrimidines of FIG. 2 would not be inhibitors of ICE. Also, it is known that ICE requires the aspartic acid side chain (—CH2COOH) at PI. Pyrimidines which inhibit elastase (FIG. 2) contain the valine side chain (—CHMe2).
Compounds of examples 1, 6 and 7 were examined for their ability to inhibit elastase. The in vitro assay was carried out as described by Cha, Biochem. Pharmacol., (1975), 24, 2177-2185.

For the compound `O=C(O)C[C@H](NC(=O)Cn1c(-c2ccc(F)cc2)ncc(NC(=O)OCc2ccccc2)c1=O)C(=O)COc1cc(C(F)(F)F)nn1-c1ccccc1` [Example 6, N-[2-(5-Benzyloxycarbonylamino-6-oxo-2-(4-fluorophenyl)-1,6-dihydro-1-pyrimidinyl)acetoyl]-L-aspartic Acid 5-(1-phenyl-3-trifluoromethyl)pyrazoloxymethyl Ketone], the values for the IC50 (in test [1]; against elastase) were 0.1 to 10 µM and at least 10 µM, respectively.
For `CC(C)OC(=O)Nc1cnc(-c2ccccc2)n(CC(=O)N[C@@H](CC(=O)O)C(=O)COc2cc(C(F)(F)F)nn2-c2ccccc2)c1=O` [Example 7, N-[2-(5-Isopropyloxycarbonylamino-6-oxo-2-phenyl-1,6-dihydro-1-pyrimidinyl)acetoyl]-L-aspartic Acid 5-(1-phenyl-3-trifluoromethyl)pyrazoloxymethyl Ketone] the same measures were 0.1 to 10 µM and at least 10 µM.
As for `O=C(O)C[C@H](NC(=O)Cn1c(-c2ccc(F)cc2)ncc(NC(=O)OCc2ccccc2)c1=O)C(=O)COC(=O)c1c(Cl)cccc1Cl` [Example 1], the figures for the IC50 (in test [1]; at elastase) were 0.1 to 10 µM and at least 10 µM, respectively.
